Molecules are shown by their SMILES.

The data set is described as follows: Human HepG2 cell viability assay in 384 well format. The format is toxicity, cell-based. Also noted: dose 125 nL, time 70.5 hour; cytotoxicity at 70.5 h: concentration not given beside the values. The following applies: HepG2 cells, read-out: Inhibition.
`Cc1cc(C(=O)N(C)Cc2cccs2)nc(N2CCOCC2)n1`: the cytotoxicity at 70.5 h was -0.782%. With `CCC(Oc1ccccc1)c1nn2c(CN(CC)CC)nnc2s1` (centres undefined), the cytotoxicity at 70.5 h was -7.01%.

On to `Cc1cc2n(n1)[C@@H](C(F)(F)F)C[C@@H](C1CCCN(C(=O)C(C)C)C1)N2` (some centres undefined), for which the cytotoxicity at 70.5 h was -3.95%. Next, `CCCC(=O)N1CCC([C@@H]2C[C@H](C(F)(F)F)n3nc(C)cc3N2)CC1`: -6.51%; `Cc1cc2n(n1)[C@@H](C(F)(F)F)C[C@@H](C1CCN(C(=O)C(C)C)CC1)N2`: -1.78%. As for `O=C(CCc1cc(Cl)no1)N1CCC(c2cc3ncccc3cn2)CC1`, the cytotoxicity at 70.5 h worked out at 0.563%. In the case of `Cc1cc(C)nc(N2CCC(CNC(=O)c3cnccn3)CC2)n1`, the cytotoxicity at 70.5 h is 3.07%. `Cc1cc(C)nc(N2CCC(CNC(=O)c3ccccn3)CC2)n1`: the cytotoxicity at 70.5 h stood at 2.6%. Next, `CCCN1C[C@H](NC(=O)c2cc(C)no2)[C@@H](c2ccc(OC)cc2)C1`: 0.817%; `CC(=O)c1cc(C(=O)N2Cc3ccccc3OC3(CCOCC3)C2)cs1`: 6.07%; `Cc1cnc(C(=O)N2Cc3ccccc3OC3(CCOCC3)C2)cn1`: 1.74%. As to `Cc1cnc(C(=O)N2Cc3cc(Cl)ccc3OC3(CCOCC3)C2)cn1`, the cytotoxicity at 70.5 h is 1.54%. With `Nc1nonc1C(=O)N1Cc2ccccc2OC2(CCOCC2)C1`, the cytotoxicity at 70.5 h worked out at 2.48%. Next, `O=C(CN1CCC(c2cc(=O)n3c(n2)CCCCC3)CC1)N1CCCC1`: 1.49%; `CCS(=O)(=O)N1C[C@H]2CC[C@](O)(c3ccc(C)cc3)[C@H]2C1`: 2.5%. For `Cc1ccc([C@@]2(O)CC[C@@H]3CN(S(=O)(=O)C(C)C)C[C@@H]32)cc1` the value was 2.49%; for `O=C(Cc1ccccn1)N1CCC(c2noc(-c3ccncc3)n2)CC1`, 5.1%; for `COc1ccccc1C1=NOC(CC2(C(=O)NC(C)C)CCOCC2)C1` (centres undefined), -4.53%. For the molecule `CC(C)CNC(=O)C1(Cc2ccccc2-c2cccs2)CCNC1` (centres undefined), the cytotoxicity at 70.5 h is -0.684%. Take `COCCOCC(=O)N1C[C@@H]2CC[C@H](Oc3ccccc3F)[C@@H]2C1`: the cytotoxicity at 70.5 h was found to be 12.1%. As for `COCCOCC(=O)N1C[C@@H]2CC[C@H](Oc3cccc(F)c3)[C@@H]2C1`, the cytotoxicity at 70.5 h was -3.05%. For the molecule `CCOCC(=O)N1C[C@@H]2CC[C@H](Oc3ccccc3)[C@@H]2C1`, the cytotoxicity at 70.5 h is -3.41%. Turning to `Nc1nccnc1C1CN(C(=O)c2cnccn2)CCO1` (centres undefined), the cytotoxicity at 70.5 h is -4.25%. Turning to `O=C(N[C@@H]1CCC[C@@H](N2CCOCC2)[C@@H]1O)c1cnn2cccnc12`, the cytotoxicity at 70.5 h is -1.42%.

As to `Cc1noc(C)c1-c1ccc(C2CCCN2C(=O)c2cnn(C)c2)nc1` (centres undefined), the cytotoxicity at 70.5 h is -0.651%. Turning to `Cc1nc2ccc(C(=O)N3C[C@@H](O)[C@H](N4CCN(C)CC4)C3)cc2[nH]1`, the cytotoxicity at 70.5 h is -4.75%.

Turning to `CC(=O)N1CCc2nc(C3CCN(C(=O)c4ccccc4)C3)ncc2C1` (centres undefined), the cytotoxicity at 70.5 h came to 0.561%.

In the case of `COCCN1CCN(Cc2cnc(C(C)C)nc2)CC1`, the cytotoxicity at 70.5 h was determined as 16.4%. For `CCc1ncc(CN2CCN(CCOC)CC2)cn1` the value was 7.17%; for `Cc1nc2ccc(C(=O)N3CC[C@H](O)[C@@H](N4CCOCC4)CC3)cc2[nH]1`, 0.0805%. As for `CN(C(=O)c1ccon1)[C@@H]1CCC[C@@H](Oc2ccccc2)[C@@H]1O`, the cytotoxicity at 70.5 h is -1.37%.

As to `O[C@H]1CN(Cc2cccc(C(F)(F)F)c2)CC[C@@]12CCCO2`, the cytotoxicity at 70.5 h was determined as 15.6%. For the molecule `CN1CCCC(c2ccnc(C(=O)NCC3CC3)c2)C1` (centres undefined), the cytotoxicity at 70.5 h was -2.35%. For `CS(=O)(=O)c1cn[nH]c1C1CCCCN1C(=O)Cc1cccnc1` (centres undefined) the value was 5.76%.

Consider `CNc1cncc(C2CCCN2S(=O)(=O)c2ccccc2F)n1` (centres undefined), for which the cytotoxicity at 70.5 h is -0.0855%. On to `Cn1nccc1CCC(=O)N1CCOC(c2cnccn2)C1` (centres undefined), for which the cytotoxicity at 70.5 h is -12.6%. In the case of `Fc1ccccc1OCCc1cc(C2CCNC2)n[nH]1` (centres undefined), the cytotoxicity at 70.5 h is -4.09%. As to `Cc1ncc(CN2CCOC(c3ccc(-c4cnn(C)c4)cn3)C2)s1` (centres undefined), the cytotoxicity at 70.5 h was -6.63%. As to `Cc1noc(C2(C)CCCN(C(=O)c3cccnc3)C2)n1` (centres undefined), the cytotoxicity at 70.5 h turned out to be 11.1%.

With `O=C(CCc1cccnc1)N1CCC(c2cnccn2)CC1`, the cytotoxicity at 70.5 h was -6.11%.

Turning to `Cc1n[nH]c(C)c1-c1cnc(CC2CCCN(S(C)(=O)=O)C2)cn1` (centres undefined), the cytotoxicity at 70.5 h was -10.2%. As to `Cc1cc(N2CC(c3n[nH]c4nccnc34)C2)ncn1`, the cytotoxicity at 70.5 h was -9.37%. Take `CNC(=O)c1cn[nH]c1C1(C)CCCN(CC2(O)CCCCC2)C1` (centres undefined): the cytotoxicity at 70.5 h was -6.79%. Next, `Cc1c(C(=O)N2CCC(O)(CN(C)C)C2)c2ccccc2n1C` (centres undefined): 11%; `CCc1nnc(Nc2cccc(C3CCN(C)CC3)n2)s1`: 35%; `c1cnc(C2CCCN2c2cnccn2)cn1` (centres undefined): 6.08%.

For `CCc1nnc(Nc2cccc(C3CCN(C(C)=O)CC3)n2)s1`, the cytotoxicity at 70.5 h stood at 44.9%. As to `CC(=O)N1CCCC1c1ccnc(Nc2cncnc2)n1` (centres undefined), the cytotoxicity at 70.5 h is -15.4%. With `Cc1nc(Nc2ncccn2)cc(C2CCCN2C(C)C)n1` (centres undefined), the cytotoxicity at 70.5 h is -14%. With `Cc1nc(Nc2cnccn2)cc(C2CCCN(C(C)C)C2)n1` (centres undefined), the cytotoxicity at 70.5 h was -8.23%. Take `Cc1ccccc1S(=O)(=O)N1CCC(c2[nH]ncc2C)C1` (centres undefined): the cytotoxicity at 70.5 h was -8.88%. For the molecule `COC(=O)N1CCCN(Cn2nc(C)c(Br)c2C)CC1`, the cytotoxicity at 70.5 h came out at 31.2%. `CCc1noc(CN2CCOC3(CCCC3)C2)n1`: the cytotoxicity at 70.5 h was -2.11%. As for `COCCCNC(=O)CN(C)C(C)c1nc(C(C)C)no1` (centres undefined), the cytotoxicity at 70.5 h was -4.17%. `CCC(=O)N1CCCN(Cn2nc(C)c(Br)c2C)CC1`: the cytotoxicity at 70.5 h is -0.667%. Take `O=C(CSCCN1CCOCC1)N1CCc2ccccc2C1`: the cytotoxicity at 70.5 h turned out to be 17.6%. `O=C(CSCCN1CCOCC1)N1CCCCCC1`: the cytotoxicity at 70.5 h turned out to be 29.9%. As for `Cc1nc(CN2CCCC(C)(CO)C2)no1` (centres undefined), the cytotoxicity at 70.5 h is -4.42%. Consider `CC(=O)c1cc(Br)cc(F)c1OCC(=O)NC(C)C`, for which the cytotoxicity at 70.5 h was -4.15%. With `Cn1ccnc1S(=O)(=O)C(C(=O)N1CCCCC1)c1ccccc1` (centres undefined), the cytotoxicity at 70.5 h was found to be 23.2%. For `Cc1nn(C)c(C)c1NC(=O)CN1CCOC(CN(C)C)C1` (centres undefined), the cytotoxicity at 70.5 h worked out at 5.23%. Regarding `Cc1cccc(-c2ccc(C(=O)N3CCN(C4CC4)CC3)c(=O)[nH]2)c1`, the cytotoxicity at 70.5 h was found to be 22.8%. `CC(=O)N1CCN(C(=O)c2ccc(-c3cccc(C)c3)[nH]c2=O)CC1`: the cytotoxicity at 70.5 h was -2.2%. With `COc1ccc(CN2CCC(C(N)=O)C2)c(Br)c1OC` (centres undefined), the cytotoxicity at 70.5 h stood at 0.0817%. For `COc1ccccc1CC(C)CC(=O)O` (centres undefined), the cytotoxicity at 70.5 h was -11.2%. As to `CC(C)c1cc(NC(=O)CNC2CCc3nc(C(C)C)nn3C2)on1` (centres undefined), the cytotoxicity at 70.5 h worked out at 4.46%. Regarding `CS(=O)(=O)CCn1ccc(NC(=O)Cc2c[nH]c3ccccc23)n1`, the cytotoxicity at 70.5 h amounted to 5.18%. As for `O=S(=O)(CCc1ccccc1Cl)CC(O)CO` (centres undefined), the cytotoxicity at 70.5 h is -0.491%. For `O=C(C(c1ccccc1)S(=O)(=O)c1ccccc1)N1CCCCC1` (centres undefined), the cytotoxicity at 70.5 h came to 3.14%. For `O=S(=O)(Cc1cccc(F)c1)Nc1cc(Cl)ccn1`, the cytotoxicity at 70.5 h worked out at 2.91%. Regarding `O=C(NCc1ccon1)c1c(F)cc(Br)cc1F`, the cytotoxicity at 70.5 h was -3.14%. As for `NC(=O)c1cn(CC2CC2)c(C2CC2)n1`, the cytotoxicity at 70.5 h is -7.32%.

For the molecule `Cc1cccc(NC(=O)NC2CCC3(C2)OCCO3)c1Cl` (centres undefined), the cytotoxicity at 70.5 h is -6.97%.

As for `Cn1ccnc1CNC1CCCOc2c1ccc1ccccc21` (centres undefined), the cytotoxicity at 70.5 h is -6.96%.

On to `O=S(=O)(N1CCCCCC1)N1CCCN(CC2CCCO2)CC1` (centres undefined), for which the cytotoxicity at 70.5 h is -1.63%. On to `Cc1cc2ccccc2n1CC(=O)NC(C)C(=O)N1CCOCC1` (centres undefined), for which the cytotoxicity at 70.5 h is -8.04%.

Consider `O=C(Nc1ccccc1-c1ccccc1)NC1CCC2(C1)OCCO2` (centres undefined), for which the cytotoxicity at 70.5 h turned out to be 27.5%. For the molecule `CCOC(C)c1nccn1Cc1c(C)noc1C` (centres undefined), the cytotoxicity at 70.5 h is -2.96%.

On to `Cc1csc(CNc2cnc3c(c2)c(C)nn3C)n1`, for which the cytotoxicity at 70.5 h stood at 12.8%.

On to `CC(C)(C)c1cnc(CN2CCCS2(=O)=O)o1`, for which the cytotoxicity at 70.5 h was -1.12%. Turning to `Cc1ccc(OCc2cccc(C(=O)N(C)CCC#N)c2)cn1`, the cytotoxicity at 70.5 h turned out to be 0.941%. For `CC(=O)C(Cc1ccccc1)NC(=O)CSc1nncn1C` (centres undefined), the cytotoxicity at 70.5 h was -5.49%. Take `COCCN(Cc1coc(-c2cccc(Cl)c2)n1)C1CC1`: the cytotoxicity at 70.5 h was -4.43%. For `Cc1cc(N(Cc2ccccc2F)C2CC2)n2nc(C(F)(F)F)nc2n1`, the cytotoxicity at 70.5 h is -1.77%. As for `CN(C)C(=O)Cc1ccccc1NCc1nc(Cc2ccccc2)no1`, the cytotoxicity at 70.5 h was -0.0229%. `Cc1noc(CNc2ccccc2CC(=O)N(C)C)n1`: the cytotoxicity at 70.5 h was -4.56%. Next, `Cc1[nH]ncc1CCCNC(=O)N1CCC(C(N)=O)CC1`: -4.17%; `Fc1cccc2c1CCC2NCc1cnc(N2CCOCC2)nc1` (centres undefined): -1.25%; `CC(NCCn1cccn1)c1ccccc1F` (centres undefined): -0.726%. Consider `Cc1csc2nc3n(c(=O)c12)CCN(Cc1c[nH]cn1)CC3`, for which the cytotoxicity at 70.5 h was determined as 0.274%. With `COc1ccccc1CNC(Cc1cccs1)c1nc(C)c(C)s1` (centres undefined), the cytotoxicity at 70.5 h worked out at 8.5%. In the case of `COc1ccc(CNC(Cc2cccs2)c2nc(C)c(C)s2)cc1OC` (centres undefined), the cytotoxicity at 70.5 h was determined as 2.99%. Next, `COc1cccc(CNC(Cc2cccs2)c2nc(C)c(C)s2)c1OC` (centres undefined): -1.23%. Turning to `COc1cccc(C(=O)N2CCc3nc(C4CCCN4)ncc3C2)c1` (centres undefined), the cytotoxicity at 70.5 h was -1.65%. Regarding `COc1ccc(CN2CCn3c(CO)nnc3C2)cc1CN1CCCC1`, the cytotoxicity at 70.5 h was determined as 2.95%. Next, `Cc1ccc(CN(CCCn2ccnc2)Cc2c(F)cccc2F)s1`: 24%. Turning to `Cc1ccc(CN(CCCn2ccnc2)Cc2cnn(C)c2)s1`, the cytotoxicity at 70.5 h is 25.9%. As for `Cc1ccc(O)c(CN(CCCn2ccnc2)Cc2ccc(C)s2)c1`, the cytotoxicity at 70.5 h was determined as 0.701%. `Cc1ccc(CN(CCCn2ccnc2)Cc2c[nH]nc2C(C)(C)C)s1`: the cytotoxicity at 70.5 h was -0.375%.

The values above are taken from ChEMBL document CHEMBL3507680, “University of Dundee, Gates Library screen for HepG2 cell viability”.
